According to US20030157704A1, “Reagents and methods for identifying and modulating expression of genes regulated by CDK inhibitors” (priority 2001, published 2003):

Columns and labels:
Type in all cases: cell-based, human
[1] = tested on: NK4 promoter; experiment: Luciferase assay in LuNK4p21 cell line (NK4 promoter-luciferase, IPTG-inducible p21)
Procedure: This assay was performed as follows. Cells were plated at a density of 40,000 cells/well in 12 well plates in 1 mL of media containing penicillin/streptomycin, glutamine and 10% fetal calf serum (FCS). After attachment, cells were treated with 50 μM IPTG or left untreated for different periods of time. Luciferase activity was then measured as described in Example 8 above. An additional aliquot was removed from the cell lysate to measure protein concentration using the Bio-Rad protein assay kit (Bradford assay). Luciferase activity for each sample was normalized to protein content and expressed as luciferase activity/μg protein.
Luciferase assays were performed substantially as described in Example 9. Luciferase activity was measured after 16 hrs of incubation with or without 50 μM IPTG, followed by an additional 20 hr treatment in the presence or in the absence of 20 mM sodium salicylate, 1 mM sulindac, or 10 mM aspirin. […] NSAID concentrations were based on the pharmacologic concentrations of these agents in the serum of patients required for their anti-inflammatory properties (Yin et al., 1998, ibid.).

[2] = tested on: HS 15.T cells; experiment: Mitogenic activity assay, 3H-thymidine incorporation; settings: 60 hr in media then 24 hrs 3H-thymidine
Procedure: To verify the induction of secreted mitogenic and anti-apoptotic factors by p21, conditioned media from IPTG-treated HT1080 p21-9 cells were tested to investigate whether they would have an effect on cell growth and apoptosis. In these experiments, conditioned media were prepared by plating 10^6 HT1080 p21-9 cells per 15 cm plate in the presence of DMEM/10% FCS. The next day, IPTG was added to a final concentration of 50 μM, and this media was replaced three days later with DMEM supplemented with 0.5% FCS and 50 μM IPTG. Two days later (days 3-5 of IPTG treatment), this conditioned media was collected and stored at 4° C. up to 15 days before use. Control media were prepared by adding IPTG-free DMEM/0.5% FCS to untreated cells grown to the same density as IPTG-treated cells and collecting the media two days thereafter.
The slow-growing human fibrosarcoma cell line HS 15.T was used to detect mitogenic activity in these conditioned media. For mitogenic activity assays, both types of conditioned media, as well as fresh media and 1:1 mixtures of conditioned media and fresh media were used to test mitogenic activity. In these experiments, the conditioned media were supplemented with 1% or 2% FCS. […] Cells were then collected and their ^3H-thymidine incorporation determined as described by Mosca et al. (1992, Mol. Cell. Biol. 12: 4375-4383).

[3] = tested on: HT1080 p27-2 cells; experiment: Cell cycle distribution by FACS analysis of DNA content; settings: 50 μM IPTG, 24 hrs
Procedure: This cell population was subcloned, and 20 clonal cell lines were isolated and tested for IPTG-inducible growth inhibition. Cell line showing the strongest growth inhibition was designated HT1080 p16-5. This cell line has been deposited on Jan. 31, 2002 in the American Type Culture Collection (A.T.C.C.), Manassas, Va. and given Accession Number PTA-4020. […] Fractions of cells in different phases of the cell cycle were determined using FACS analysis of DNA content after staining with propidium iodide as described by Jordan et al. (1996, Cancer Res. 56:816-825) using Becton Dickinson FACSort. Cell cycle distribution stabilized after 24 hrs of IPTG treatment, by which time 93% of IPTG-treated cells were arrested in G1. Such G1 arrest is expected from the inhibition of CDK4/6 by p16.
Similarly, the G418-selected population of LNp27RO2 transduced cells was subcloned, and 38 clonal cell lines were isolated and tested for IPTG-inducible growth inhibition. Cell line showing the strongest growth inhibition was designated HT1080 p27-2. This cell line has been deposited on Jan. 31, 2002 in the American Type Culture Collection (A.T.C .C.), Manassas, Va. and given Accession Number PTA-4021. […] Cell cycle distribution stabilized after 24 hrs of IPTG treatment, by which time 89% of IPTG-treated cells were arrested in G1. Such G1 arrest is expected from the inhibition of CDK4/6 by p16.

[4] = tested on: HT1080 p21-9 cells; experiment: Labeling index (3H-thymidine) and mitotic index
Procedure: Cell growth in the presence of IPTG was assayed in three ways: measuring ^3H-thymidine incorporation (termed the “labeling index”); observing the number of mitotic cells in the culture by microscopy (termed the “mitotic index”) and determining the distribution of the culture cells in different portions of the cell cycle (termed the “cell cycle distribution”).
^3H-thymidine incorporation assays were performed substantially as described by Dimri et al. (1995, Proc. Natl. Acad. Sci. USA 92: 9363-9367). Cells were cultured in the presence of ^3H-thymidine for 3 h, and then analyzed by autoradiography. DNA replication was determined by autoradiography ceased entirely by 9 hours after addition of IPTG to the culture media. The mitotic index was determined by observing cells microscopically and calculating the number of cells in mitosis after staining with 5 μg/mL 4,6-diamino-2-phenylindole (DAPI), and images were collected using a Leica DMIRB fluorescence microscope and Vaytek (Fairfield, Iowa) imaging system. Microscopically-detectable mitotic cells disappeared from these cultures by 14 hrs of IPTG treatment.

With CC(C)S[C@@H]1O[C@H](CO)[C@H](O)[C@H](O)[C@H]1O [IPTG, isopropyl-β-thiogalactoside] the “treatment period at which most of the induction is achieved” value ([1]; 50 μM IPTG) was 17 h, the “increase of luciferase expression” value ([1]; 50 μM IPTG, absence of NSAID) was 3-4 fold and the “IPTG concentration at which most of the induction is achieved” value ([1]; 24 hrs of IPTG treatment) was 5 µM. The “increase in luciferase levels in IPTG-treated cells” value ([1]; LuNK4p21 cell line) was “approximately 3 fold”, the 3H-thymidine incorporation [2] was “no effect” and the “cells arrested in G1” value [3] was 89%. The “time of IPTG treatment by which mitotic cells disappeared” value ([4]; DAPI staining, microscopy) was no more than 14 h and the “time after addition of IPTG by which DNA replication ceased entirely” value ([4]; autoradiography of 3H-thymidine incorporation) was no more than 9 h.
